Source: patent US20230382926A1, “COMPOUNDS AND USES THEREOF” (The University of The West Indies, priority 2022, published 2023)

How the values were obtained:
[1] = system: Pseudomonas aeruginosa MDR 5805; assay: Rescue concentration, modified checkerboard MIC adjuvant assay; type: cell-based; settings: P. aeruginosa MDR 5805; for Rescue concentration, Amox (8): Amox at susceptible breakpoint 8 μg mL^−1; for Rescue concentration, Col (2): Col at susceptible breakpoint 2 μg mL^−1; for Rescue concentration, Gen (4): Gen at susceptible breakpoint 4 μg mL^−1; for Rescue concentration, Imi (2): Imi at susceptible breakpoint 2 μg mL^−1; for Rescue concentration, Mero (2): Mero at susceptible breakpoint 2 μg mL^−1; for Rescue concentration, Pol B (2): Pol B at susceptible breakpoint 2 μg mL^−1
Method in brief: (§1)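 Modified checkerboard: antibiotic fixed at CLSI M100 susceptible breakpoint with twofold dilutions of SP-azaBIM, against 10^6 CFU/ml in cation-adjusted MHB, 24 h at 35 °C aerobically; only antibiotics to which the strain is resistant tested. Rescue concentration is the lowest adjuvant level giving 99.99% growth reduction by visual read.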

[2] = system: Klebsiella pneumoniae ATCC 49472; assay: as above; type: cell-based; settings: K. pneumoniae ATCC 49472; for Rescue concentration, Amox (8): Amox at susceptible breakpoint 8 μg mL^−1; for Rescue concentration, Amp (8): Amp at susceptible breakpoint 8 μg mL^−1; for Rescue concentration, Col (8): Col at susceptible breakpoint 8 μg mL^−1; for Rescue concentration, Imi (1): Imi at susceptible breakpoint 1 μg mL^−1; for Rescue concentration, Mero (1): Mero at susceptible breakpoint 1 μg mL^−1; for Rescue concentration, Pol B (8): Pol B at susceptible breakpoint 8 μg mL^−1
Method in brief: as §1

MRSA = assay: Rescue concentration of substituted phenyl azaindole derivatives; type: cell-based, Staphylococcus aureus; settings: Amoxicillin fixed at 2 μg/mL
Method in brief: (§2)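 Modified checkerboard MIC: fixed CLSI susceptible-breakpoint antibiotic concentration plus twofold dilution series of SP-azaBIM, 10^6 CFU/ml in ca-MHB, 35° C, 24 h aerobic. Only antibiotics to which the strain was resistant were tested. Rescue concentration = lowest compound concentration giving 99.99% growth reduction (visual) at breakpoint.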

K. pneumoniae = assay: as above; type: cell-based; settings: for Rescue concentration, K. pneumoniae Ciprofloxacin (1 μg/mL): Ciprofloxacin fixed at 1 μg/mL; for Rescue concentration, K. pneumoniae Imipenem (1 μg/mL): Imipenem fixed at 1 μg/mL
Method in brief: as §2

P. aeruginosa = assay: as above; type: cell-based; settings: Imipenem fixed at 1 μg/mL
Method in brief: as §2

[3] = system: Multidrug resistant Pseudomonas aeruginosa; assay: Broth microdilution minimum inhibitory concentration; type: cell-based; settings: compound alone
Method in brief: (§3)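 Broth microdilution followed CLSI M07-A10, using 11 two-fold dilutions (top 1028 μg/mL, 2% DMSO final) and an inoculum of 2×10^5 to 8×10^5 CFU/mL. Wells were scored visually. MIC is the lowest concentration with no growth, tested in duplicate.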

[4] = system: Methicillin resistant Staphylococcus aureus; assay: as above; type: cell-based; settings: compound alone
Method in brief: as §3

[5] = system: Carbapenem resistant Acinetobacter baumannii; assay: as above; type: cell-based; settings: compound alone
Method in brief: as §3

[6] = system: Vancomycin resistant Enterococcus faecalis; assay: as above; type: cell-based; settings: compound alone
Method in brief: as §3

[7] = system: Carbapenem resistant Klebsiella pneumoniae; assay: as above; type: cell-based; settings: compound alone
Method in brief: as §3

SMILES	Rescue concentration, Amox (8) [1] [µg/mL]	Rescue concentration, Col (2) [1] [µg/mL]	Rescue concentration, Gen (4) [1] [µg/mL]	Rescue concentration, Imi (2) [1] [µg/mL]	Rescue concentration, Mero (2) [1] [µg/mL]	Rescue concentration, Pol B (2) [1] [µg/mL]	Rescue concentration, Amox (8) [2] [µg/mL]	Rescue concentration, Amp (8) [2] [µg/mL]	Rescue concentration, Col (8) [2] [µg/mL]	Rescue concentration, Imi (1) [2] [µg/mL]	Rescue concentration, Mero (1) [2] [µg/mL]	Rescue concentration, Pol B (8) [2] [µg/mL]	Rescue concentration, MRSA Amoxicillin (2 μg/mL) (MRSA) [µg/mL]	Rescue concentration, K. pneumoniae Ciprofloxacin (1 μg/mL) (K. pneumoniae) [µg/mL]	Rescue concentration, K. pneumoniae Imipenem (1 μg/mL) (K. pneumoniae) [µg/mL]	Rescue concentration, P. aeruginosa Imipenem (1 μg/mL) (P. aeruginosa) [µg/mL]	MIC [3] [µg/mL]	MIC [4] [µg/mL]	MIC [5] [µg/mL]	MIC [6] [µg/mL]	further results
Brc1ccc(C(c2c[nH]c3cnccc23)c2c[nH]c3cnccc23)cc1 [SP-6azaBIM 125, 3,3′-((4-bromophenyl)methylene)bis(1H-pyrrolo[2,3-c]pyridine)]	128	>128	16	>128	>128	>128	4	16	4	2	4	4	0.5	4	4	32	< 1020	< 1020	< 1020	< 1020	MIC [7]: < 1020 µg/mL
Oc1ccc(C(c2c[nH]c3cnccc23)c2c[nH]c3cnccc23)cc1 [SP-6azaBIM 136, 4-(bis(1H-pyrrolo[2,3-c]pyridin-3-yl)methyl)phenol]	2	4	4	2	2	4	32	64	32	16	32	16	8	<256	<256	256	< 1020	< 1020	< 1020	< 1020	MIC [7]: < 1020 µg/mL
Brc1ccc(C(c2c[nH]c3ncccc23)c2c[nH]c3ncccc23)cc1 [SP-7azaBIM 126, 3,3′-((4-bromophenyl)methylene)bis(1H-pyrrolo[2,3-b]pyridine)]	>128	>128	>128	>128	>128	>128	>128	>128	>128	>128	>128	>128	–	–	–	–	–	–	–	–	–
Oc1ccc(C(c2c[nH]c3ncccc23)c2c[nH]c3ncccc23)cc1 [SP-7azaBIM 135, 4-(bis(1H-pyrrolo[2,3-b]pyridin-3-yl)methyl)phenol]	64	>128	>128	>128	>128	>128	>128	>128	>128	>128	>128	>128	–	–	–	–	–	–	–	–	–
